Experimental findings from patent US12016353B2, “Compositions and methods for aquaculturing” (The State of Israel, Ministry of Agriculture & Rural …, priority 2017, dated 2024) are described below.

Assay type in all cases: in vivo, Sparus aurata
The subject of experiment [1] is PepT1. The experiment in a line: Sustained effect of dietary butyrate on PepT1 mRNA expression in gilthead sea bream. Particulars: for PepT1 transcription levels after butyrate feeding had ceased: 6 days after feeding butyrate ceased. Here is the method:
(§1) The experimental set up consisted of 200 L circular tanks in a flow through, filtered (10 μm) ambient seawater (40‰) system under a natural photoperiod of about 12 h/12 h (dark/light) where the water temperature ranged between 24.8-25.4° C. Experimental diets were offered to the fish twice a day (9:00; 14:00).
For determining whether (1) an effect of dietary butyrate on PepT1 transcriptional level is sustained after its supplementation has stopped and (2) to investigate an effect of dietary butyrate on Cdx1b expression. To this end another study was carried out. In this trial, fish having an average weight of 27.14±0.47 g (mean±SEM) were stocked at a density of 30 fish per tank with two replicate tanks per treatment. Fish were fed with the experimental diets (Table 4) including 1% taurine and 0, 0.8 and 1.6% of sodium butyrate for 8 days before its supplementation was stopped and all of the dietary groups started receiving the 0% sodium butyrate containing diet. Four fish from each tank (8 fish per dietary treatment) were sampled for their proximal intestine total RNA at days 9, 12 and 15 of the trial.
Fish were euthanized with an overdose of MS2-22 (Sigma Aldrich, USA) followed by a swift decapitation and then dissected for the removal of their gastrointestinal tract. For total RNA, the 1st segment of the proximal intestine (approx. 1 cm) was cut, immediately frozen and stored at −80° C. until RNA extraction. For histology, pieces of the proximal intestine (approx. 0.6 cm) were sampled, placed in 15 ml Falcon tubes containing 10% neutral buffered formalin (NBF) and stored at room temperature until processed. For immunohistochemistry (IHC-P) staining, pieces of proximal intestine (approx. 0.6 cm) were sampled, placed in 1.7 ml microcentrifuge tubes containing 4% paraformaldehyde (PFA) and stored at 4° C. for overnight fixation. After fixation, the intestinal samples were rinsed twice and washed three times (10 min each) with PBST 0.8% (PBS with 0.8% Triton x-100, Sigma Aldrich, USA). Following this, the samples were gradually dehydrated by one 5 min wash with 50% methanol in PBST followed by three more washings with 100% methanol and stored in 100% methanol at −20° C. until carrying out the staining procedure. After the removal of the gastrointestinal tract, the remaining carcasses of sampled fish were put into nylon bags and stored at −20° C. until proximate analysis. In order to calculate the gut index (GI), fish were weighed prior to the removal of their gastrointestinal tract. The intestines were separated from the stomach and pyloric caeca and then aligned, by forceps, against a ruler for measuring their length (mm). For each fish, gut index was calculated using the following formula: Gut index=100×Body weight (g)/(intestine length (mm))^3.
(§2) Total RNA extraction from samples of the proximal intestine was carried out using BioTri reagent (Biolab, Israel) according to the manufacturer's instructions. For determining total RNA quality and concentration, 2 μl from each sample diluted with 18 μl of DEPC treated water (1:10) were loaded onto a 384 well microplate (Greiner Bio-One, Austria). In each sample the 260/280 ratio, 260/230 ratio and RNA concentration were obtained by plate reader and Gen5 software (Synergy HT, BioTek, USA). For each RNA extraction procedure, the integrity of the extracted RNA was evaluated by electrophoresis on 1.2% agarose gel stained with GelRed (Biotium, USA). […]

For experiment [2], the system named is PepT1. As to the kind of experiment: PepT1 pattern of expression during the day in gilthead sea bream (10 day trial). Particulars: diet with 0.8% sodium butyrate and 1% taurine versus control, FIG. 4. Here is the method:
as §1
Fish having an average weight of 14.49±0.2 g (mean±SEM) were stocked in […] at a density of 30 fish tank^−1 with 5 replicate tanks (assigned as A-E) dietary treatment^−1. During the 10 day trial, fish were offered the experimental diets (Table 4) with 1% taurine and with 0 and 0.8% of sodium butyrate (Sigma Aldrich, USA). […]
Fish were euthanized with an overdose of MS2-22 (Sigma Aldrich, USA) followed by a swift decapitation and then dissected for the removal of their gastrointestinal tract. […] For each fish, gut index was calculated using the following formula: Gut index=100×Body weight (g)/(intestine length (mm))^3.
Total RNA extraction from samples of the proximal intestine was carried out using BioTri reagent (Biolab, Israel) according to the manufacturer's instructions. […] In each sample the 260/280 ratio, 260/230 ratio and RNA concentration were obtained by plate reader and Gen5 software (Synergy HT, BioTek, USA). For each RNA extraction procedure, the integrity of the extracted RNA was evaluated by electrophoresis on 1.2% agarose gel stained with GelRed (Biotium, USA). […]

The test system of experiment [3] is proximal intestine epithelium. As to the kind of experiment: Histological analysis of proximal intestine cross sections of sea bream (inner/outer perimeter ratio). Particulars: 1.6% sodium butyrate, independent of dietary protein level, P<0.001, FIG. 9. Here is the method: During the 13 week trial, fish were weighed approximately every two weeks. The data were used to calculate growth rates and to adjust the daily rations of feed. At the end of the trial, 6 fish from each tank were sampled for calculating gut index and extracting their proximal intestine total RNA. Two other fish were sampled for histology and body composition. All sampling procedures were performed as described.
Fish were euthanized with an overdose of MS2-22 (Sigma Aldrich, USA) followed by a swift decapitation and then dissected for the removal of their gastrointestinal tract. For total RNA, the 1st segment of the proximal intestine (approx. 1 cm) was cut, immediately frozen and stored at −80° C. until RNA extraction. […] For each fish, gut index was calculated using the following formula: Gut index=100×Body weight (g)/(intestine length (mm))^3.
Standard protocol for histological analysis was implemented (Grate et al., 2003). […] Intestinal cross sections were photographed under a stereo zoom microscope (Axio Zoom.V16, Zeiss, Germany) and the inner and outer perimeter (mm) of the sections were measured using ImageJ software (imagej(dot)nih(dot)gov/ij/). […] The calculated ratio (inner perimeter/outer perimeter) for each section was then averaged for each slide/sample and analyzed for differences between treatments.

Experiment [4] deals with PCNA. The experiment in a line: PCNA mRNA expression in sea bream proximal intestine (intestinal epithelial cell proliferation). Particulars: 0.8% sodium butyrate diet for 9 days, 1.5 h after feeding, P<0.05, FIG. 6. How it is done:
Fish having an average weight of 14.49±0.2 g (mean±SEM) were stocked in 15 tanks at a density of 30 fish tank^−1 with 5 replicate tanks (assigned as A-E) dietary treatment^−1. […]
as §2
Specific real-time PCR primers (Table 6) were designed for amplifying the sea bream PepT1 (accession no. GU733710.1), PCNA (accession no. CX734891.1), CCK, Cdx1b and β-actin (accession no. AY362763.1) transcripts. Quantification of target gene transcripts of different treatments was achieved by PCR reaction mix (10 μl) containing SYBR Green dye (Quanta, Perfecta; SYBR Green FastMix, Low ROX; 95074-012), template cDNA and 500 nM of target specific primers in a quantitative PCR system (Applied Biosystems, 7500 Fast Real Time PCR System). […]

SMILES strings stand for the structures.

`CCCC(=O)[O-].[Na+]` [sodium butyrate]: the “PepT1 transcription levels after butyrate feeding had ceased” value in experiment [1] (0.8% butyrate for 8 days, FIG. 5B) is “remained higher than the control”; in experiment [1] (1.6% butyrate for 8 days, FIG. 5C), “remained higher than the control”. For the same compound, the PepT1 transcription result is “significantly (P<0.001) increased” in experiment [1] (0.8% butyrate in diet for 8 days versus control, FIG. 5A) and “significantly (P<0.001) increased” in experiment [1] (1.6% butyrate in diet for 8 days versus control, FIG. 5A). For the same compound, in experiment [1] (1.6% butyrate in diet for 8 days, FIG. 5A), the “PepT1 transcription, increase over control” value is listed as “more than 2 fold”. Besides, the “PepT1 expression prior to the morning feeding” value in experiment [2] is “significantly (P<0.01) higher PepT1 expression”. Also, in experiment [3], the “expansion of the inner to outer perimeter ratio of the proximal intestine” value was “approximately 30%”. Also, in experiment [4], the “PCNA expression relative to control” value is on record as “more than 2 fold”.
